This note sets out measurements from patent US10858323B2, “HDAC inhibitors for the treatment of diabetic peripheral neuropathy” (REGENACY PHARMACEUTICALS, LLC, priority 2015, dated 2020).

A word on the IC50: it is the point on the concentration scale where inhibition reaches its midpoint.

For data set [1], the system named is streptozotocin-induced diabetic rats (STZ rats). In words: Von Frey test of tactile allodynia in STZ diabetic rats. The data set is classed as in vivo, rat. As to conditions: for tactile allodynia / pain threshold (von Frey): STZ rats, oral dosing days 11-21. Here is the method: Diabetes was induced in male SD rats by IV dosing of STZ (60 mg/kg) on […]. Blood glucose level (BGL) of above 300 mg/dl was observed on study day 3, following STZ dosing, which maintained throughout the study period.
Gabapentin (150 mg/kg) was used as a positive control. Tactile allodynia was measured on the indicated days during dosing and once on day 24, three days after dosing was stopped. Vehicle treated animals experienced low mechanical threshold throughout the treatment period (days 11-21) and also 3 days after the last dose (day 24).

For data set [2], the system named is streptozotocin hyperglycemic rats, dorsal root ganglia and sciatic nerves. In words: Metabolomic study in diabetic neuropathic pain model. The data set is classed as in vivo, rat. As to conditions: 10 mg/kg twice per day, 11 days. The method, then: Hyperglycemia was induced in rats with an injection of streptozotocin (60 mg/kg). Ten days later neuropathic pain was confirmed using a von Frey filament test for tactile allodynia. In this test, filaments of increasing diameter were applied to the plantar surface of the rear paw and the force necessary to precipitate a paw withdrawal is determined by the smallest filament needed to invoke a response. […] In addition, three naïve rats and three rats that had tactile allodynia at day 10 were sacrificed and the dorsal root ganglia and sciatic nerves were dissected and frozen as control samples.
Dorsal root ganglia and sciatic nerves were sent to Human Metabolome Technologies for analysis of metabolic intermediates. Extracts from these samples were analyzed by capillary electrophoresis/mass spectrometry to measure the level of charged metabolites. In addition, sciatic nerve extracts were analyzed by liquid chromatography/mass spectrometry to measure the level of non-charged metabolites.

The nature of data set [3]: Blood brain barrier penetration. As to conditions: in vivo.
Another data set relates to Rats. Briefly: Tail Flick test. The class given is in vivo, rat. As to conditions: BID for 4 days or single dose 1 h before test. Here is the method:
A Tail Flick test was performed every hour in a time period of four hours after treatments.
Data are presented in FIG. 4 as the latency time in seconds until the animals flicked their tails in response to the heat source. Morphine and Gabapentin were used as positive controls.
For orientation: In hot-plate and tail-flick tests a longer latency is read as antinociception.

In data set [4] the test system is primary rat dorsal root ganglion (DRG) neurons. Briefly: Mitochondrial axonal transport live imaging under high glucose. The class given is cell-based. As to conditions: 200 mM glucose and 500 nM compound, 24 h. Here is the method:
To investigate the effects of hyperglycemia on axonal transport live imaging was used to measure mitochondrial transport in primary rat dorsal root ganglion cells. Primary rat dorsal root ganglion (DRG) neurons (Lonza) were cultured for 5-7 days according to the vendor's protocol. The day before the imaging session cells were infected using CellLight Mitochondria-GFP (BacMam 2.0-based reagent, ThermoFisher Scientific) to fluorescently label mitochondria. […] Media in control wells was replaced with fresh media containing 25 mM glucose (control). Cells were allowed to incubate under these conditions for 24 h. […] Imaging was performed using Zeiss 3i system (Intelligent Imaging Innovations) in temperate controlled environment (37 C). Mitochondria were visualized using FITC filter. Time lapse images were acquired every 2 seconds over the course of 2 min and analyzed using Fiji (ImageJ). MtrackJ plugin was used to manually track mitochondrial movements and calculate parameters such as total distance traveled by each mitochondria. Total distance traveled by a population of mitochondria in each condition was plotted as a cumulative frequency plot. Data presented is a pool of 5 independent experiments.

Data set [5] deals with Dorsal root ganglion neurons (DRGNs). Briefly: Acetyl-tubulin fluorescent ICC of axonal microtubules. The data set is classed as cell-based, rat. The method, then:
DRGNs were treated with Compound 2 on coverslips, fixed and stained with antibodies against acetyl-tubulin and total tubulin (fluorescent ICC) to visualize and quantitate tubulin acetylation in axonal microtubules. […] Acetyl-tubulin signal was normalized to total tubulin signal.

The test system is the same in data set [6]. In words: Tubulin and histone acetylation by western blot of whole cell extracts. The data set is classed as cell-based, rat. As to conditions: 24 hours treatment.
The next data set deals with HDAC6 (Homo sapiens (Human), UniProt Q9UBN7). In words: HDAC enzyme assay (HDAC6). The class given is biochemical.
HDAC6, sequence (Q9UBN7 whole entry): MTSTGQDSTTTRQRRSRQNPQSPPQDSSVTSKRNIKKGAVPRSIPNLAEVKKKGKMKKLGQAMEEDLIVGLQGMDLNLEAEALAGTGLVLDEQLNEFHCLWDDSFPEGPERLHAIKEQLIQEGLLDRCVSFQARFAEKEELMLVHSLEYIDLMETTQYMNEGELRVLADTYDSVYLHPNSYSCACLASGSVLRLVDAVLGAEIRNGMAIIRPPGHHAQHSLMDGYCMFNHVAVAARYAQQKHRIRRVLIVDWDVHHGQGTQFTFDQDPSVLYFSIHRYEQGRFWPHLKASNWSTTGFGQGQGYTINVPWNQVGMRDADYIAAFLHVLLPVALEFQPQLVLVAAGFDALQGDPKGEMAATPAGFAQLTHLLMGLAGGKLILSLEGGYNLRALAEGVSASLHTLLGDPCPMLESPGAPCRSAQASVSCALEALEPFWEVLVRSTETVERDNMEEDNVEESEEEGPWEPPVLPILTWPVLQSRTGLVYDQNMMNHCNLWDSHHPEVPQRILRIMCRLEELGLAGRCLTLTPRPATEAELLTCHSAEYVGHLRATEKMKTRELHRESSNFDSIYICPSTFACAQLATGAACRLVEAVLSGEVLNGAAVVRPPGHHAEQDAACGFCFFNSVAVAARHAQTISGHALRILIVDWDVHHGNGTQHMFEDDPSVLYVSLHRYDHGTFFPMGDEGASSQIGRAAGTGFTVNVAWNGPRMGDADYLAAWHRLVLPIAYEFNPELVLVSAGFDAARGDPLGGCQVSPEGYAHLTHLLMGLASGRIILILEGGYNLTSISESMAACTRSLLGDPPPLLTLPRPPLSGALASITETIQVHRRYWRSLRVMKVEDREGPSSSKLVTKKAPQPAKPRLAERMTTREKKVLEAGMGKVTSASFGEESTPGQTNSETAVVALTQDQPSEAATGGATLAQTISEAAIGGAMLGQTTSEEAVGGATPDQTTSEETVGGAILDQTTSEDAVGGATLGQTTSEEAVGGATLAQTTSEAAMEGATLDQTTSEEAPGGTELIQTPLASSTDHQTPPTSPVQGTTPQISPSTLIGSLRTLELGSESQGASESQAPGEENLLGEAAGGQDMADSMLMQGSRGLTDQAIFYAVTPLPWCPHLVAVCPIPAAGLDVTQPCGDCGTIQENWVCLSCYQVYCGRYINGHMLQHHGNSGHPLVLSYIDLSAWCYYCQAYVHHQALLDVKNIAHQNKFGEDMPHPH
Another data set deals with HDAC1 (Homo sapiens (Human), UniProt Q13547). Briefly: HDAC enzyme assay (HDAC1). The class given is biochemical.
HDAC1, sequence (Q13547 whole entry): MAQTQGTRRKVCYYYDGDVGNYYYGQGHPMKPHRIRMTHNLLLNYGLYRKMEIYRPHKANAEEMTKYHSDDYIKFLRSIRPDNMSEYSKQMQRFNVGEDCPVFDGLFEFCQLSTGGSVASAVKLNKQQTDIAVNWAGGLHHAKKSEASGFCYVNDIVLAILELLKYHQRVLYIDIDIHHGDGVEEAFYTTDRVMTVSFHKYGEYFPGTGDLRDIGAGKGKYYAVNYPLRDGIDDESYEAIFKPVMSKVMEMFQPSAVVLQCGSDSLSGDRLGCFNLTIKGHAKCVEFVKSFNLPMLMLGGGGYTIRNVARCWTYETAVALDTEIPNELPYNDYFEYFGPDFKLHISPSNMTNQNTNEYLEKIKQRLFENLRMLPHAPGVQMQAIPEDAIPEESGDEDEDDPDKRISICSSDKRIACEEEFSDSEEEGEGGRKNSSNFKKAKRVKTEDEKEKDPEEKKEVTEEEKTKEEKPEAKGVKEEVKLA
For another data set, the target named is HDAC2 (Homo sapiens (Human), UniProt Q92769). Briefly: HDAC enzyme assay (HDAC2). As to conditions: read-out: HDAC2 IC50.
HDAC2, sequence (Q92769 whole entry): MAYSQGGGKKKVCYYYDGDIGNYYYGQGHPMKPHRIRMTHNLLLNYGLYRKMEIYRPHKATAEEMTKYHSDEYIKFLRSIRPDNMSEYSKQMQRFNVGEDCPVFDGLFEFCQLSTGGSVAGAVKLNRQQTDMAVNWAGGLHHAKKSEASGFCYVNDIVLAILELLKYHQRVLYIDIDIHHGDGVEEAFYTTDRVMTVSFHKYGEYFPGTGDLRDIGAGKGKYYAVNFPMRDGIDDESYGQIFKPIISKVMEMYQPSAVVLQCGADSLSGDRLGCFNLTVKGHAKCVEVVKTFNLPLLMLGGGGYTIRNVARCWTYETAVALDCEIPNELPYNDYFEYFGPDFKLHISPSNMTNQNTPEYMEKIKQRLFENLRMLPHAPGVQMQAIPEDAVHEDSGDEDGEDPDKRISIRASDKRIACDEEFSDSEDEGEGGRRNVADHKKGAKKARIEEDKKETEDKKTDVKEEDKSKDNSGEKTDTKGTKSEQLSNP
The next data set addresses HDAC3 (Homo sapiens (Human), UniProt O15379). Briefly: HDAC enzyme assay (HDAC3). The class given is biochemical.

SMILES strings stand for the structures.

HDAC3, sequence (O15379 whole entry): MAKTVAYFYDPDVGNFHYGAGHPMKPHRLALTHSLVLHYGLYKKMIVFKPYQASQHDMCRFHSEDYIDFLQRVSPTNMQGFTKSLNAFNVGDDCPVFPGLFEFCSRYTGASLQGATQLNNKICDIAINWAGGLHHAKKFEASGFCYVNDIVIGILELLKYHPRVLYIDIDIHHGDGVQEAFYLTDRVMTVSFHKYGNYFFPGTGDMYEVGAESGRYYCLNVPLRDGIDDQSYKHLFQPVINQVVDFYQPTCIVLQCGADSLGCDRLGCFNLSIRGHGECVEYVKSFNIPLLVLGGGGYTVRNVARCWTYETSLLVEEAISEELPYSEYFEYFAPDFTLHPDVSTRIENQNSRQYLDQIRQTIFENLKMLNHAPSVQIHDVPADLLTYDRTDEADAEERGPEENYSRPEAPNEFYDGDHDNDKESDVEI
HDAC3, sequence (Q9Y618 395-489 partner): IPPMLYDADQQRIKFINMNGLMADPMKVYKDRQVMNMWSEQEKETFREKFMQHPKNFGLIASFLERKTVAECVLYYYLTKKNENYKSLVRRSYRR

For the compound `O=C(NO)c1cnc(NC2(c3ccccc3)CC2)nc1` [Compound 1, N-hydroxy-2-((1-phenylcyclopropyl)amino)pyrimidine-5-carboxamide], the “tactile allodynia / pain threshold (von Frey)” value in [1] was “reversed tactile allodynia in STZ rats in a dose dependent manner and restored the pain threshold in these rats to almost normal levels”. Further, in data set [1] (day 24, three days after dosing was stopped), the “persistence of effect on pain threshold after drug withdrawal” value is “persisted even after the drug was withdrawn”. For the same compound, the “metabolic changes incl. acyl-carnitines (AC 16:2, AC 18:2)” value in data set [2] is given as “normalized many of the metabolic changes, including the changes in acyl-carnitines”. Moreover, in data set [3], the “blood brain barrier penetration” value is reported as “penetrates the blood brain barrier”. The “increase of latency time in Tail Flick test vs vehicle control” value in the data set with Rats is on record as “not effective”.
As for `O=C(CCCCCCNC(=O)c1cnc(N(c2ccccc2)c2ccccc2)nc1)NO` [Compound 2, 2-(diphenylamino)-N-(7-(hydroxyamino)-7-oxoheptyl)pyrimidine-5-carboxamide], the “mitochondrial movement (total distance traveled)” value in data set [4] is on record as “restores normal pattern of mitochondrial movement”. The “acetylation of axonal microtubules (acetyl-tubulin normalized to total tubulin)” value in data set [5] is “increases acetylation of axonal microtubules”. The “tactile allodynia / pain threshold (von Frey)” value in [1] was “reversed tactile allodynia in STZ rats in a dose dependent manner and restored the pain threshold in these rats to almost normal levels”. The “blood brain barrier penetration” value in data set [3] was “does not penetrate the blood brain barrier very well”. Moreover, the “histone acetylation (western blot)” value in data set [6] (at up to 1 uM) was “Minimal histone acetylation increase”. The “tubulin acetylation (western blot)” value in data set [6] (whole cell extracts) is “induced an increase in tubulin acetylation in a dose-dependent matter”. Also, the “increase of latency time in Tail Flick test vs vehicle control” value in the data set on Rats was “not effective (except in the group that received Compound 2 at 30 mg/kg BID for 4 days)”.
For `COc1ccc(C(F)(F)F)cc1CNc1ncc(C(=O)NO)cn1` [Compound 3, N-hydroxy-2-((2-methoxy-5-(trifluoromethyl)benzyl)amino)pyrimidine-5-carboxamide], the 50% inhibitory concentration (IC50) at HDAC6 came out at 2 nM; on HDAC1, 68 nM; on HDAC2, 82 nM; at HDAC3, 105 nM. In addition, the “tactile allodynia / pain threshold (von Frey)” value in [1] was “reversed tactile allodynia in STZ rats in a dose dependent manner and restored the pain threshold in these rats to almost normal levels”.
